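Test compounds were applied to cells in 96-well plates for 48 hours at 5 doses. Abbreviation: GI50, concentration required for 50% inhibition of growth. TGI denotes the concentration required for complete inhibition of growth.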
Legend:
Experiment in all cases: inhibition of tumour cell growth, NCI panel, 48 h
M14 melanoma = test system: M14 melanoma
HCC-2998 colon = test system: HCC-2998 colon
MDA-MB-231 breast = test system: MDA-MB-231 breast
RXF 393 renal = test system: RXF 393 renal
HT29 colon = test system: HT29 colon
SK-MEL-2 melanoma = test system: SK-MEL-2 melanoma
SF-268 CNS = test system: SF-268 CNS
HCT-116 colon = test system: HCT-116 colon
A498 renal = test system: A498 renal
PC-3 prostate = test system: PC-3 prostate

Compound	GI50 (M14 melanoma) [µM]	TGI (M14 melanoma) [µM]	GI50 (HCC-2998 colon) [µM]	TGI (HCC-2998 colon) [µM]	GI50 (MDA-MB-231 breast) [µM]	TGI (MDA-MB-231 breast) [µM]	GI50 (RXF 393 renal) [µM]	TGI (RXF 393 renal) [µM]	GI50 (HT29 colon) [µM]	TGI (HT29 colon) [µM]	GI50 (SK-MEL-2 melanoma) [µM]	TGI (SK-MEL-2 melanoma) [µM]	GI50 (SF-268 CNS) [µM]	TGI (SF-268 CNS) [µM]	GI50 (HCT-116 colon) [µM]	TGI (HCT-116 colon) [µM]	GI50 (A498 renal) [µM]	TGI (A498 renal) [µM]	GI50 (PC-3 prostate) [µM]	TGI (PC-3 prostate) [µM]
CC(=O)Nc1ccc(Sc2ccc([N+](=O)[O-])o2)cc1	2.08	4.09	1.9	3.52	2.18	4.95	0.929	3.46	1.56	3.25	2.31	6.29	3.16	11.8	0.924	2.75	12.2	25	2.23	6.58
C=C(C)[C@@H]1CC[C@]2(C)[C@H](C(=O)C=C3[C@@H]4C[C@](C)(C(=O)N5CCN(C)CC5)CC[C@]4(C)CC[C@]32C)[C@@]1(C)CCC#N	6.86	14.1	6.72	13.6	7.58	14.6	5.32	11.4	2.38	8.49	7.57	14.8	7.26	15.2	3.03	9.33	7.77	14.9	3.17	10.4
CS(=O)CCCCCN=C=S (stereo unspecified)	3.3	14.6	13.9	28.8	4.76	17.4	3.37	9.45	3.47	11.1	3.43	14.7	4.06	17.4	2.86	10.2	10.4	23.5	11.6	25.6
CCCCCCCCCCCCCCCCCC1=NCCN1CS(=O)(=O)O	6.19	21	17	34.4	9.34	23.7	15.4	35.6	4.44	19.9	27.7	67.4	13.9	30.2	10.4	30.3	14.8	31	11.4	26.1
CCNCC(=O)O[C@]1(CC)C(=O)OCc2c1cc1n(c2=O)Cc2cc3ccccc3nc2-1		13.7		6.88		98		1.74		> 32.9		7.92		> 100		3.29		4.4		> 100
CC(C)[C@@]12C[C@@H](OC(=O)[C@H]3CO3)[C@@](C)(O1)[C@@H]1CC[C@@H](C)[C@H]1[C@@H]2OC(=O)/C=C/c1ccccc1	27	> 100	17.8	41.5	12.9	38.6	1.3	17.8	27.6	> 100	16.7	47.7	0.777	> 81.2	9.46	> 100	0.217	0.684	9.59	> 88.1
Cc1nc2sccn2c(=O)c1CCN1CCC(=C(c2ccc(F)cc2)c2ccc(F)cc2)CC1	9.53	24.8	12.3	27.5	15.2	31.9	11.3	26.9	5.37	19	16.8	32.2	15.9	32.8	5.36	20.3	15.3	29.4	4.81	19.3
COc1cc(NCCCCN=C(N)NC(N)=NC(C)C)c2ncccc2c1	14.6	38.3	2.52	14.2	1.94	17.8	> 47	> 100	7.49	32.2	3.8	14.9	3.83	17.9	2.26	11.1	28.5	> 100	2.22	16.8
CN(C)c1ccc(C(=C2C=CC(=[N+](C)C)C=C2)c2ccc(N(C)C)cc2)cc1 (tested in a mixture with another compound)	0.088			1.53	0.205	1.03	0.108	0.871	0.0411	> 100		0.545		1.29	0.039	1.02	0.0607	0.343	0.0368	1.6
